In patent US20130225641A1, “ANTICANCER COMPOUNDS AND PREPARATION METHODS THEREOF” (priority 2010, published 2013):

Key:
Assay type in all cases: in vivo, nude mice (nu/nu)
[1] = Side effects in tumor transplanted nude mice; settings: during treatment
Method: (§1) T-cell deficient nude mice (nu/nu) of 6 weeks old were purchased from Charles River Laboratory, and housed and treated in a sterile environment following Institutional Animal Care & Use Committee Program. 48 mice were respectively subcutaneously inoculated on ribbed belly with 5×10^6 human liver cancer cells (HepG3B), human lung caner cells (NCI-H23), and human colon cancer cells (HCT-116) suspended in 0.2 ml HBSS/matrigel (50:50, V/V). When the tumor grew to have an average diameter of 7-8 mm and a volume of about 100-200 mm^3, 24 mice were picked up, and assigned to treatment groups (16 animals/2 groups), and a control group (8 animals). The 2 treatment groups were administered with the compounds ZTP and ZTQ dissolved in 15% Captsol respectively at a dose of 30 mg/kg and 60 mg/kg, and the control group only received an excipient (15% Captsol).
(§2) The dose schedule of the test compounds in the tumor transplanted nude mice was as follows: the compounds ZTP and ZTQ dissolved in 15% Captsol were daily orally administered as a 200 μl solution containing 0.75 mg of ZTP and 1.5 mg of ZTQ for 5 days/week over 3 consecutive weeks, followed by one-week break; and the control group was only administered with 200 μl of the placebo (15% Captsol) for 3 weeks, followed by 1 week of break. The two groups of animals were housed separately, and allowed to free access to food.

[2] = test system: human colon cancer cells (HCT-116); experiment: Transplantation model of human colon cancer (HCT-116) in nude mice; settings: HCT-116 subcutaneous in nude mice; oral daily 5 days/week, 3 weeks; ZTP 30 mg/kg, ZTQ 60 mg/kg; lower = stronger
Method: as §1
(§3) The same number of mice of each type was assigned to the control group and the treatment groups with the compounds ZTP and ZTQ respectively.
as §2
(§4) Evaluation of antitumor effect: the tumor size was measured every 3 or 4 days. The tumor volume was calculated using the equation below: […], in which a denotes the width (the shorter diameter), and b denotes the length (the longer diameter). Relative tumor volume (RTV) of each tumor refers to the ratio of the volume at a specified time to that at the beginning of the treatment. The average RTV for each treatment group was calculated. The antitumor activity was determined by calculating the tumor growth inhibition using a formula below. […]

[3] = test system: human liver cancer cells (HepG3B); experiment: Transplantation model of human liver cancer (HepG3B) in nude mice; settings: HepG3B subcutaneous in nude mice; oral daily 5 days/week, 3 weeks; ZTP 30 mg/kg, ZTQ 60 mg/kg; lower = stronger
Method: as §1, §3, §2, §4

[4] = test system: human lung cancer cells (NCI-H23); experiment: Transplantation model of human lung cancer (NCI-H23) in nude mice; settings: NCI-H23 subcutaneous in nude mice; oral daily 5 days/week, 3 weeks; ZTP 30 mg/kg, ZTQ 60 mg/kg; lower = stronger
Method: as §1, §3, §2, §4

Compound	side effect, including the change in body weight [1]	TGI (T/C×100) [2] [%]	TGI (T/C×100) [3] [%]	TGI (T/C×100) [4] [%]
N-[4-chloro-3-(trifluoromethyl)phenyl]-[4-(N-methyl-formamide)(4-pyridyloxy)phenyl]-thiourea [ZTP]	no obvious side effect	–	–	–
CNC(=O)c1cc(Oc2ccc(NC(=O)Nc3ccc(Cl)c(C(F)(F)F)c3)cc2)ccn1 [Sorafenib, reference compound]	relatively large side effect	33	14	11.25
